# Laboratory results: patent publication US20220127232A1, “HISTONE ACETYLTRANSFERASE MODULATORS AND COMPOSITIONS AND USES THEREOF” (The Trustees of Columbia University in the City of New York, priority 2019, published 2022)
# “Also recorded” adds a separate entry of the source. Read-outs that look alike come from different tables or passages of the source.
# How the values were obtained:
# [1] = cited from earlier work
# [2] = Stability in human liver microsomes; type: in vitro ADME
# Method: Some compounds were tested for stability in human liver microsomes as shown below in Table 2.
# Mixed-gender human liver microsomes (Lot #1010420) were purchased from XenoTech. The reaction mixture, minus NADPH, was prepared as described below. The test article was added into the reaction mixture at a final concentration of 1 μM. The control compound, testosterone, was run simultaneously with the test article in a separate reaction. An aliquot of the reaction mixture (without cofactor) was equilibrated in a shaking water bath at 37° C. for 3 minutes. The reaction was initiated by the addition of the cofactor, and the mixture was incubated in a shaking water bath at 37° C. Aliquots (100 μL) were withdrawn at 0, 10, 20, 30, and 60 minutes. Test article and testosterone samples were immediately combined with 400 μL of ice-cold 50/50 acetonitrile (ACN)/H2O containing 0.1% formic acid and internal standard to terminate the reaction. The samples were then mixed and centrifuged to precipitate proteins. All samples were assayed by LC-MS/MS using electrospray ionization. Analytical conditions are outlined in Appendix 1. The peak area response ratio (PARR) to internal standard was compared to the PARR at time 0 to determine the percent remaining at each time point. Half-lives and clearance were calculated using GraphPad software, fitting to a single-phase exponential decay equation.
# Liver Microsomes 0.5 mg/mL NADPH (cofactor) 1 mM
# Potassium Phosphate, pH 7.4 100 mM
# Intrinsic clearance (CLint) was calculated based on CLint=k/P, where k is the elimination constant and P is the protein concentration in the incubation.
# [3] = tested on: hippocampal slices from WT mice; assay: Long-term potentiation (LTP) in hippocampal slices perfused with oTau or oAβ; type: cell-based; conditions: slices perfused with compound and either oTau (50 nM) or oAβ (200 nM)
# From the text: Synaptic dysfunction is a major hallmark of AD (Histol Histopathol, 1995. 10(2): p. 509-19; herein incorporated by reference in its entirety). An aspect of the drug screening protocol can include a measurement of the effect of compounds onto synaptic function. Amyloid-beta (Aβ) is a toxic peptide that is thought to underlie subtle amnesic changes occurring at early stages of Alzheimer's disease. It impairs both memory and its electrophysiological surrogate, long-term potentiation (LTP). LTP can be examined because it is a type of synaptic plasticity thought to underlie learning and memory. RA010115 can rescue the Aβ-induced reduction of LTP, and other compounds can also be screened to identify those that can re-establish normal LTP. The compounds can be applied for 20 min. Controls can be performed on slices in the absence of Aβ, and mice treated with compound. Tau is another peptide that is involved in cell to cell communication, and impairs both memory and LTP in animal models of AD and other tauopathies. FIG. 26 is a graph showing that RA010115 rescues oligomeric Tau (oTau)- and oligomeric Aβ (o Aβ)-induced LTP deficits. LTP was impaired in hippocampal slices from WT mice perfused with oTau (50 nM) and oAβ (200 nM), whereas there was no impairment in slices treated with RA10115 or vehicle. LTP was restored in slices perfused with RA010115 and either oTau or oAβ. The horizontal solid bar represents oAβ and oTau perfusion while the horizontal dashed bar represents RA010115. The three arrows correspond to the theta-burst stimulation. […]
# p300 = p300 (Homo sapiens, UniProt Q09472); assay: Histone Acetyltransferase (HAT) in vitro acetylation assay, western blot of H3K27ac / H3K18ac; type: biochemical; conditions: compound in DMSO, EC50 for activators
# Chain of p300 (Q09472 whole entry, species assumed): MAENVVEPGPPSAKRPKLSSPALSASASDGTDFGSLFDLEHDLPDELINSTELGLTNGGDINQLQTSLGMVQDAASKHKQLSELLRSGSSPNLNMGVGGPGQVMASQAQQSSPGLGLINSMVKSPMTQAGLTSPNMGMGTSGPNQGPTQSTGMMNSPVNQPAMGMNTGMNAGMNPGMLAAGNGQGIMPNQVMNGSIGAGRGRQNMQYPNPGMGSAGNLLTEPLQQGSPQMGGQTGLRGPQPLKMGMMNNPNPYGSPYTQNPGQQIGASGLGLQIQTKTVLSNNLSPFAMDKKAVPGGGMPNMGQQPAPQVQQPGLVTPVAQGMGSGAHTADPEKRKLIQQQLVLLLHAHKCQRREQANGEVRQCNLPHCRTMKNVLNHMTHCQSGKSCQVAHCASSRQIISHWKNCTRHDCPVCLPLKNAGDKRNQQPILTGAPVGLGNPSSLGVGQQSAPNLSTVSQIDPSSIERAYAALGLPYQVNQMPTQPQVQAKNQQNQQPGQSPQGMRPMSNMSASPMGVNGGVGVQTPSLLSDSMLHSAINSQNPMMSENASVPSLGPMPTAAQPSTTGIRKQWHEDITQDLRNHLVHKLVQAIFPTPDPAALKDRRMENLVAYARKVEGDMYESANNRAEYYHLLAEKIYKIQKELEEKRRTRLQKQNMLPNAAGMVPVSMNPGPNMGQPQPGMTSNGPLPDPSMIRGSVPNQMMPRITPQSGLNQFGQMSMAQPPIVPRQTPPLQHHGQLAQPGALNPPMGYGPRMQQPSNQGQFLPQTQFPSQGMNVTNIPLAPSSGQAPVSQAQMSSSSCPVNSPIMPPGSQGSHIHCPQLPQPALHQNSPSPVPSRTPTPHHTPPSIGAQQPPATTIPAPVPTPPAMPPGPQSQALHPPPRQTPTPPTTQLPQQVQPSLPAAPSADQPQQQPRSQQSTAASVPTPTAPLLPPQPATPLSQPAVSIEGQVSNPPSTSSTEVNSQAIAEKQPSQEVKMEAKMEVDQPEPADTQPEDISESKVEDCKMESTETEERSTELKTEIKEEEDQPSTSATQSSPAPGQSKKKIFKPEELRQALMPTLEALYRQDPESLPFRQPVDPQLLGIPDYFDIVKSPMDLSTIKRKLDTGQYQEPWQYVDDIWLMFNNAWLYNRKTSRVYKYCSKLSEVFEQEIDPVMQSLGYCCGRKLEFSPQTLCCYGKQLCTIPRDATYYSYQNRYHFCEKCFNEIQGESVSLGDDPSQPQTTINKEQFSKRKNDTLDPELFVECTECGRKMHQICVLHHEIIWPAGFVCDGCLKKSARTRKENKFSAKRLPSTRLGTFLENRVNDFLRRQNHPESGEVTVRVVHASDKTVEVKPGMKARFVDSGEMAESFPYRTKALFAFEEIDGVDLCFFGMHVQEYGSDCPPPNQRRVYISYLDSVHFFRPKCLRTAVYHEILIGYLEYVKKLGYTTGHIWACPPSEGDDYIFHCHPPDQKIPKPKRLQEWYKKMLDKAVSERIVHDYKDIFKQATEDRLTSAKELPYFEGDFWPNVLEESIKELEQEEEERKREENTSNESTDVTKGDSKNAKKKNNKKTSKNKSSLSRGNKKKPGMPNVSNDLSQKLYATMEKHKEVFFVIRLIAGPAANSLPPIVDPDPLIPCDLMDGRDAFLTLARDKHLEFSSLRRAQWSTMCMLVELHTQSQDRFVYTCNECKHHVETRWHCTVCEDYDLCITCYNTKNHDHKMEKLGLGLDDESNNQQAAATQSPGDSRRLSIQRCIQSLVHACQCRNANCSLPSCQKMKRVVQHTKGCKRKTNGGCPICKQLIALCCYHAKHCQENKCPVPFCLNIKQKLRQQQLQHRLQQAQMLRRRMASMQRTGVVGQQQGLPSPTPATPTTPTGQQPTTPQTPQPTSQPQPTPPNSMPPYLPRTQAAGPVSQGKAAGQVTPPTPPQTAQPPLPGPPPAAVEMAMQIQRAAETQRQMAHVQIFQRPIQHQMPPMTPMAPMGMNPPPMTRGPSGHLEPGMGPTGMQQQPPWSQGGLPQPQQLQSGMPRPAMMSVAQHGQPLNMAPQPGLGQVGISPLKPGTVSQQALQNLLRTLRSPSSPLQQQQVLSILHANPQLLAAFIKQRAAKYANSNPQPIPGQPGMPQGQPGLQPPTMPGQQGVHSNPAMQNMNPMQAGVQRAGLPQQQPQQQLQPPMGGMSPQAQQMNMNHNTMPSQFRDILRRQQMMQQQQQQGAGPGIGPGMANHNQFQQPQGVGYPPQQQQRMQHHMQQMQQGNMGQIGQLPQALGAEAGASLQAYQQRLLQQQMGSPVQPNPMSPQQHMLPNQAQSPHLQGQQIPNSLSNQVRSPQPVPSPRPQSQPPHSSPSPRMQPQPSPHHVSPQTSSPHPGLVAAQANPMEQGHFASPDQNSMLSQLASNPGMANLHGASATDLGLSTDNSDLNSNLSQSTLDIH
# Method: The aim of the in vitro acetylation assay is to measure the enzymatic activity of the various compounds towards p300.
# First, the drug is prepared:
# Second, dilute p300 in AM1 buffer to a concentration of 40 ng/μL (final concentration in the reaction 20 ng/μL). This is accomplished by diluting 1 μL of p300 (at 0.4 μg/μL) into […] of AM1 buffer.
# Third, prepare the Master Mix. Prepare the Master Mix in low protein binding tubes (ThermoFisher Cat. No. 90410), 20 μL system.
# Incubate reactions at 30° C. for 30 minutes.
# Incubate reactions at 30° C. for 1 hour.
# Fourth, perform the western blot assay. • Add 6.7 μL of Laemmli Sample Buffer 4× (Bio-Rad Laboratories Cat. No. 161-0737) for each reaction and boil samples at 95° C. for 5 min. • Charge 10 μL for each sample in 2 Tris Glycine 4-15% gels (Bio-Rad Laboratories Cat. No. 456-1086). Running Buffer: Tris-Glycine 1× (pour in the cell up to the writing “2 gels”). • Run at 90 V for 1 hour (until the gel front reaches the green line of cell). • Semi-dry transfer with Trans-Blot® Turbo™ Blotting System from Bio-Rad Laboratories (Trans-Blot® Turbo™ RTA midi PVDF transfer kit Cat. No1704275). • Activate PVDF membrane in methanol for 5 minutes and then wet in Trans-Blot® Turbo™ transfer buffer. • Wet stacks in transfer buffer. • Transfer at 23 V 1.3 A for 7 minutes. • Blocking buffer: 5% Non-Fat milk in TBST (tween 0.1%) 1 hour at room temperature. • Cut the membranes to get Ac-His 3 at 17 kDa and p300 at 300 kDa. • Incubate with primary antibodies overnight at 4° C. • The day after, make 3 washes in TBST (Tween 0.1%) of 10 minutes. • Incubate with secondary antibody at room temperature for 1 hour. • Make 3 washes in TBST (Tween 0.1%) of 5 minutes. • Incubate membranes with ECL (SuperSignal West Dura Extended Duration Substrate from ThermoFisher) for 5 minutes at room temperature. • Acquire the image with ChemiDoc Odyssey Fc 2 minutes.
# To detect total H3 (loading control), strip the membranes with Restore™ Western Blot Stripping Buffer according to the manufacturer protocol.
# Various compounds were tested for enzymatic activity with respect to Lys 18 and Lys 27. EC50 is indicated for Activators and IC50 for inhibitors respectively.
# FIGS. 1A to 25B are graphs showing the lysine residue acetylation as a function of concentration for the compounds set forth in Table 3. The shaded area corresponds to the average values of lysine residue acetylation (continuous line) and their standard error range measured in the absence of compound and DMSO. The number of replicates is represented by “n”.
Compound,Solubility [1],"microsomal CLint at 1 μM ([2]; both sexes, human, liver microsomes, pH 7.4, human liver microsomes, 1 μM, read-out: CLint) [µL/min/mg]","half-life at 1 μM ([2]; both sexes, human, liver microsomes, pH 7.4, human liver microsomes, 1 μM, read-out: Half-life) [min]","% Remaining of Initial (n = 1) 0 min ([2]; human liver microsomes, test article 1 μM, 0 min) [%]","% Remaining of Initial (n = 1) 10 min ([2]; human liver microsomes, test article 1 μM, 10 min) [%]","% Remaining of Initial (n = 1) 20 min ([2]; human liver microsomes, test article 1 μM, 20 min) [%]","% Remaining of Initial (n = 1) 30 min ([2]; human liver microsomes, test article 1 μM, 30 min) [%]","% Remaining of Initial (n = 1) 60 min ([2]; human liver microsomes, test article 1 μM, 60 min) [%]",oTau- and oAβ-induced LTP deficits [3],EC50 (p300; read-out: H3-Lys 18 EC50) [nM],EC50 (p300; read-out: H3-Lys 27 EC50) [nM]
CCOc1ccccc1C(=O)Nc1ccc(Cl)c(C(F)(F)F)c1 [CTB],insoluble,–,–,–,–,–,–,–,–,–,–
CCCCCCCCCCCCCCCc1cccc(OCC)c1C(=O)Nc1ccc(Cl)c(C(F)(F)F)c1 [CTPB],insoluble,–,–,–,–,–,–,–,–,–,–
CCOc1cccc(OCCN(C)C)c1C(=O)Nc1ccc(Cl)c(C(F)(F)F)n1 [RA013915],–,43.2,32.1,100,79.6,63.8,52.4,27.6,restored; also recorded: rescues,72.6,57.6
